Drawing on PubChem BioAssay AID256 (DTP/NCI, 2004), this text covers T/C for ten compounds.

Molecules are shown by their SMILES. “And” between values parts separate entries of the source, which are not always exact repeats. Equal entries are not always repeated. Inconclusive results and toxic doses are left out.

The assay has as its system CD2F1 mice, L1210 leukemia ip, survival T/C. The assay is described as follows: NCI In Vivo Anticancer Drug Screen. Data for tumor model L1210 Leukemia (intraperitoneal) in CD2F1 (CDF1) mice. The note with it: endpoint: mean survival time, higher = longer survival. Summed up:
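Vehicle-treated tumor-bearing mice served as controls (C) for compound-treated mice (T). Reported figure is T divided by C.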

The mark [1] stands for this setting: dose: 100.0 mg/kg/injection, schedule: Q01DX009 (ip), vehicle: saline with Tween-80.
[2] abbreviates: dose: 100.0 mg/kg/injection, schedule: Q04DX003 (ip), vehicle: saline with Tween-80.
The mark [3] stands for this setting: dose: 200.0 mg/kg/injection, schedule: Q01DX009 (ip), vehicle: saline with Tween-80.
[4] abbreviates: dose: 200.0 mg/kg/injection, schedule: Q04DX003 (ip), vehicle: saline with Tween-80.
The mark [5] stands for this setting: dose: 400.0 mg/kg/injection, schedule: Q01DX009 (ip), vehicle: saline with Tween-80.
Where [6] appears, read: dose: 400.0 mg/kg/injection, schedule: Q04DX003 (ip), vehicle: saline with Tween-80.
Setting [7] is: dose: 100.0 mg/kg/injection, schedule: Q04DX002 (ip), vehicle: saline with Tween-80.
Where [8] appears, read: dose: 200.0 mg/kg/injection, schedule: Q04DX002 (ip), vehicle: saline with Tween-80.

Regarding `COc1cc([C@@H]2c3cc4c(cc3[C@@H](OC3OC5CO[C@@H](c6cccs6)OC5C(O)C3O)[C@H]3COC(=O)[C@H]23)OCO4)cc(OC)c1O` (some centres undefined), the T/C (dose: 0.25 mg/kg/injection, schedule: Q01DX009 (ip), vehicle: saline) is 115 % of control; the T/C (dose: 0.25 mg/kg/injection, schedule: Q03HX016 (ip), vehicle: saline) is 152 % of control; the T/C (dose: 0.25 mg/kg/injection, schedule: Q03HX024 (ip), vehicle: saline) is 169 % of control and 173 % of control; the T/C (dose: 0.5 mg/kg/injection, schedule: Q01DX009 (sc), vehicle: saline) is 110 % of control; the T/C (dose: 0.5 mg/kg/injection, schedule: Q03HX008 (ip), vehicle: saline) was 164 % of control; the T/C (dose: 0.5 mg/kg/injection, schedule: Q03HX016 (ip), vehicle: saline) was 246 % of control. In addition, the T/C is 256 % of control and 323 % of control (dose: 0.5 mg/kg/injection, schedule: Q03HX024 (ip), vehicle: saline); 153 % of control (dose: 1.0 mg/kg/injection, schedule: Q01DX005 (ip), vehicle: saline); 123 % of control and 231 % of control and 106 % of control (dose: 1.0 mg/kg/injection, schedule: Q01DX009 (ip), vehicle: saline); 192 % of control (dose: 1.0 mg/kg/injection, schedule: Q03HX008 (ip), vehicle: saline); 544 % of control (dose: 1.0 mg/kg/injection, schedule: Q03HX016 (ip), vehicle: saline); 441 % of control and 514 % of control (dose: 1.0 mg/kg/injection, schedule: Q03HX024 (ip), vehicle: saline). The T/C reads like this: (dose: 2.0 mg/kg/injection, schedule: Q01DX001 (sc), vehicle: saline) 113 % of control; (dose: 2.0 mg/kg/injection, schedule: Q01DX005 (ip), vehicle: saline) 204 % of control; (dose: 2.0 mg/kg/injection, schedule: Q01DX009 (ip), vehicle: saline) 202 % of control and 109 % of control; (dose: 2.0 mg/kg/injection, schedule: Q01DX009 (oral), vehicle: saline) 114 % of control; (dose: 2.0 mg/kg/injection, schedule: Q01DX009 (sc), vehicle: saline) 166 % of control; (dose: 2.0 mg/kg/injection, schedule: Q03HX008 (ip), vehicle: saline) 173 % of control. Moreover, the T/C reads like this: (dose: 2.0 mg/kg/injection, schedule: Q03HX016 (ip), vehicle: saline) 313 % of control; (dose: 2.0 mg/kg/injection, schedule: Q03HX024 (ip), vehicle: saline) 89 % of control; (dose: 4.0 mg/kg/injection, schedule: Q01DX001 (ip), vehicle: saline) 158 % of control; (dose: 4.0 mg/kg/injection, schedule: Q01DX001 (sc), vehicle: saline) 123 % of control; (dose: 4.0 mg/kg/injection, schedule: Q01DX005 (ip), vehicle: saline) 87 % of control; (dose: 4.0 mg/kg/injection, schedule: Q01DX009 (ip), vehicle: saline) 210 % of control and 112 % of control. Moreover, the T/C (dose: 4.0 mg/kg/injection, schedule: Q01DX009 (sc), vehicle: saline) was 102 % of control; the T/C (dose: 4.0 mg/kg/injection, schedule: Q04DX003 (ip), vehicle: saline) was 209 % of control; the T/C (dose: 4.0 mg/kg/injection, schedule: Q08DX002 (ip), vehicle: saline) is 164 % of control; the T/C (dose: 8.0 mg/kg/injection, schedule: Q01DX001 (ip), vehicle: saline) was 239 % of control; the T/C (dose: 8.0 mg/kg/injection, schedule: Q01DX001 (oral), vehicle: saline) was 122 % of control; the T/C (dose: 8.0 mg/kg/injection, schedule: Q01DX009 (oral), vehicle: saline) is 102 % of control. The T/C reads like this: (dose: 8.0 mg/kg/injection, schedule: Q04DX003 (ip), vehicle: saline) 169 % of control and 251 % of control; (dose: 8.0 mg/kg/injection, schedule: Q08DX002 (ip), vehicle: saline) 346 % of control; (dose: 16.0 mg/kg/injection, schedule: Q01DX001 (ip), vehicle: saline) 254 % of control; (dose: 16.0 mg/kg/injection, schedule: Q01DX001 (sc), vehicle: saline) 153 % of control; (dose: 32.0 mg/kg/injection, schedule: Q01DX001 (ip), vehicle: saline) 87 % of control; (dose: 32.0 mg/kg/injection, schedule: Q01DX001 (sc), vehicle: saline) 156 % of control. The T/C is 454 % of control (dose: 32.0 mg/kg/injection, schedule: Q04DX003 (ip), vehicle: saline) and 114 % of control (dose: 32.0 mg/kg/injection, schedule: Q08DX002 (ip), vehicle: saline).

Take `CC(=O)NC(C(=O)O)C(C)c1c[nH]c2ccccc12` (centres undefined): the T/C is 104 % of control under setting [1]; 97 % of control under setting [2]; 96 % of control under setting [3]; 97 % of control under setting [4]; 95 % of control under setting [5]; 91 % of control under setting [6].

Consider `CCO/C=C1\SC(=S)N(c2ccccc2C)C1=O`, for which the T/C by setting is: under setting [1], 106 % of control and 111 % of control; under setting [2], 103 % of control; under setting [3], 103 % of control and 106 % of control; under setting [4], 108 % of control; under setting [5], 88 % of control; under setting [6], 113 % of control.

Consider `CCOC(=O)c1c(-c2ccccc2)csc1NC(=O)CBr`, for which the T/C is 106 % of control (dose: 75.0 mg/kg/injection, schedule: Q01DX001 (ip), vehicle: saline); 101 % of control (dose: 150.0 mg/kg/injection, schedule: Q01DX001 (ip), vehicle: saline); 98 % of control (dose: 300.0 mg/kg/injection, schedule: Q01DX001 (ip), vehicle: saline).

On to `S=C(NCc1ccccc1)NCc1ccccc1`, for which the T/C is 108 % of control under setting [2], 100 % of control under setting [4] and 102 % of control under setting [6].

As to `CCOC(CCCO)OCC`, the T/C reads like this: under setting [7], 103 % of control; under setting [8], 100 % of control; (dose: 400.0 mg/kg/injection, schedule: Q04DX002 (ip), vehicle: saline with Tween-80) 103 % of control.

`[Ni+2].[S-]Cc1ccccc1.[S-]Cc1ccccc1`: the T/C is, setting by setting: (dose: 100.0 mg/kg/injection, schedule: Q01DX001 (ip), vehicle: saline) 100 % of control; (dose: 200.0 mg/kg/injection, schedule: Q01DX001 (ip), vehicle: saline) 96 % of control.

Regarding `CC(C)CSCC1OC(n2cnc3c(N)nccc32)C(O)C1O` (centres undefined), the T/C is, setting by setting: (dose: 3.13 mg/kg/injection, schedule: Q03HX024 (ip), vehicle: distilled water + Tween-80) 100 % of control; (dose: 6.25 mg/kg/injection, schedule: Q03HX024 (ip), vehicle: distilled water + Tween-80) 105 % of control; (dose: 12.5 mg/kg/injection, schedule: Q01DX005 (ip), vehicle: distilled water + Tween-80) 107 % of control; (dose: 12.5 mg/kg/injection, schedule: Q03HX024 (ip), vehicle: distilled water + Tween-80) 96 % of control; (dose: 25.0 mg/kg/injection, schedule: Q01DX005 (ip), vehicle: distilled water + Tween-80) 115 % of control; (dose: 25.0 mg/kg/injection, schedule: Q03HX024 (ip), vehicle: distilled water + Tween-80) 100 % of control. For the same compound, the T/C (dose: 50.0 mg/kg/injection, schedule: Q01DX005 (ip), vehicle: distilled water + Tween-80) was 100 % of control; the T/C (dose: 50.0 mg/kg/injection, schedule: Q03HX024 (ip), vehicle: distilled water + Tween-80) is 96 % of control; the T/C (dose: 100.0 mg/kg/injection, schedule: Q01DX005 (ip), vehicle: distilled water + Tween-80) is 88 % of control; the T/C (dose: 100.0 mg/kg/injection, schedule: Q03HX024 (ip), vehicle: distilled water + Tween-80) is 86 % of control.

In the case of `Cc1sc2cc(N)ccc2[n+]1C`, the T/C was 102 % of control (dose: 12.5 mg/kg/injection, schedule: Q04DX002 (ip), vehicle: saline with Tween-80); 98 % of control (dose: 25.0 mg/kg/injection, schedule: Q04DX002 (ip), vehicle: saline with Tween-80); 95 % of control (dose: 50.0 mg/kg/injection, schedule: Q04DX002 (ip), vehicle: saline with Tween-80); 98 % of control under setting [7]; 109 % of control under setting [8].

Take `CCCC(O)C(C)[N+](=O)[O-]` (centres undefined): the T/C was 96 % of control (dose: 100.0 mg/kg/injection, schedule: Q01DX009 (ip), vehicle: saline); 106 % of control (dose: 200.0 mg/kg/injection, schedule: Q01DX009 (ip), vehicle: saline); 96 % of control (dose: 400.0 mg/kg/injection, schedule: Q01DX009 (ip), vehicle: saline).
